This note sets out measurements from US8802664B2 (Bioproject, priority 2010, dated 2014).

This assay deals with T1, human H4 receptor (Homo sapiens, UniProt Q9H3N8).
T1 construct: expressed in transfected cells
T1 sequence (Q9H3N8 whole entry): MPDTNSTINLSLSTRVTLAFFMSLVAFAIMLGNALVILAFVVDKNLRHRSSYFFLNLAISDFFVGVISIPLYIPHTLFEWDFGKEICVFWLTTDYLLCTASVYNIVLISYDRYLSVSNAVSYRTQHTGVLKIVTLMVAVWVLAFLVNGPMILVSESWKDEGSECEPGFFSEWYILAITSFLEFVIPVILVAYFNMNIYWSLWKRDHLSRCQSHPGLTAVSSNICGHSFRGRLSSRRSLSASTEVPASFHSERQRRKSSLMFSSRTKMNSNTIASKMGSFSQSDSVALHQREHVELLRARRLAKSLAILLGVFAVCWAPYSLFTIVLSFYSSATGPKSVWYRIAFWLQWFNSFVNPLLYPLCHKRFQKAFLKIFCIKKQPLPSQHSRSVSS
In words: [3H]Histamine binding on membranes of CHO cells stably expressing human H4 receptor. The procedure: CHO cells stably expressing human H4 receptor were grown until sub-confluence and centrifuged at 300 g 15 minutes at 4° C. Pellets were resuspended in buffer I Tris-HCl 50 mM, MgCl2 10 mM, NaCl 140 mM, pH=7.4 supplemented by a 1/50 dilution of a mix of protease inhibitors. The obtained suspension is stirred gently and submitted to a […] exerted through a syringe. The cell lysate is then centrifuged at 300 g 15 minutes at 4° C. in order to eliminate nucleus and cell scraps. The obtained supernatant was then centrifuged at 48000 g for 30 minutes at 4° C. The final pellet is resuspended in buffer I with a potter homogenizer. Aliquots were frozen in liquid nitrogen and stored until use at −80° C. Protein content is measured by the Bradford method.
Defreezed membranes were diluted at a final concentration of 20 μg/180 μL/well in a binding buffer containing 50 mM Tris/HCl, 0.5 mM EDTA, pH=7.4 and distributed in 96 well polystyrene microplate. [^3H] […] Non specific binding was estimated in the presence of 10 μM BP1.2404 (JNJ 7777120). The reaction was terminated by filtration through GF/B filters pre-soaked 2 hours at 4° C. in […]. Filters were rinsed 3 times with 250 μl of ice cold incubation binding buffer.
The filter-bound radioactivity was measured in a liquid scintillation counter Microbeta TRILUX® with 50 μl of scintillation fluid.
The hH4 binding investigated by use of [^3H]
In the case of `CN1CCC(OC(c2cccc(-c3c[nH]nn3)c2)c2nc3ccccc3[nH]2)CC1` (stereo not drawn) [Example 198, 2-{(1-methylpiperidin-4-yloxy)[3-(1H-[1,2,3]triazol-4-yl)phenyl]methyl}-1H-benzimidazole], the Ki or IC50 activity class was under 30 nM. In the case of `CN1CCC(NC(c2cccc(Oc3ccccc3)c2)c2nc3ccccc3[nH]2)CC1` (stereo not drawn) [Example 85, [(1H-benzimidazol-2-yl)(3-phenoxyphenyl)methyl](1-methylpiperidin-4-yl)amine], the Ki or IC50 activity class was under 300 nM. Compound `CN1CCC(NC(c2cccc(OCCC3=CCC4CC3C4(C)C)c2)c2nc3ccccc3[nH]2)CC1` (stereo not drawn) [Example 181, ((1H-benzimidazol-2-yl)-{3-[2-(6,6-dimethyl-bicyclo[3.1.1]hept-2-en-2-yl)ethoxy]phenyl}methyl)(1-methylpiperidin-4-yl)amine] returned a Ki or IC50 activity class of under 30 nM. `CN1CCC(OC(c2cccc(CCCCCCN)c2)c2nc3ccccc3s2)CC1` (stereo not drawn) [Example 325, 6-{3-[benzothiazol-2-yl(1-methylpiperidin-4-yloxy)methyl]phenyl}hexylamine] returned a Ki or IC50 activity class of under 30 nM.

`CN1CCC(OC(c2ccc(Cl)cc2)c2nc3ccccc3[nH]2)CC1` (stereo not drawn) [Example 226, 2-[(4-chlorophenyl)(1-methylpiperidin-4-yloxy)methyl]-1H-benzimidazole] returned a Ki or IC50 activity class of under 300 nM. In turn, `CN1CCC(OC(c2cccc(CCc3cn(C)cn3)c2)c2nc3ccccc3s2)CC1` (stereo not drawn) [Example 306, 2-[{3-[2-(1-methyl-1H-imidazol-4-yl)ethyl]phenyl}(1-methylpiperidin-4-yloxy)methyl]benzothiazole] registered a Ki or IC50 activity class of under 300 nM. Consider `CN1CCC(OC(c2cccc(-c3ccc(F)cc3)c2)c2nc3ccccc3s2)CC1` (stereo not drawn) [Example 136, 2-[(4′-fluorobiphenyl-3-yl)(1-methylpiperidin-4-yloxy)methyl]benzothiazole], for which the Ki or IC50 activity class was under 300 nM. The same measure for `Fc1ccc(OC(F)(F)F)cc1C(OCC1CNC1)c1nc2ccccc2[nH]1` (stereo not drawn) [Example 515]: under 1000 nM; for `CN1CCC(OC(c2cccc(C=CS(=O)(=O)c3ccccc3)c2)c2nc3ccccc3s2)CC1` (stereo not drawn) [Example 209, 2-[[3-(2-benzenesulfonylvinyl)phenyl](1-methylpiperidin-4-yloxy)methyl]benzothiazole]: under 300 nM; for `CN1CCC(OC(c2cccc(C(=O)N(C)Cc3ccccc3)c2)c2nc3ccccc3s2)CC1` (stereo not drawn) [Example 219, 3-[benzothiazol-2-yl(1-methylpiperidin-4-yloxy)methyl]-N-benzyl-N-methylbenzamide]: under 1000 nM. Turning to `CN1CCC(OC(c2cccc(SC[C@H]3C[C@H]3CN)c2)c2nc3ccccc3[nH]2)CC1` (stereo partly drawn) [Example 494], the Ki or IC50 activity class was under 30 nM. On to `CN1CCC(OC(c2cccc(C#CCCCCN)c2)c2nc3ccccc3n2C)CC1` (stereo not drawn) [Example 480, 6-{3-[(1-methyl-1H-benzimidazol-2-yl)(1-methylpiperidin-4-yloxy)methyl]phenyl}hex-5-ynylamine], for which the Ki or IC50 activity class is under 300 nM. Compound `CN1CCC(OC(c2cccc(SCCCN)c2)c2nc3ccccc3s2)CC1` (stereo not drawn) [Example 314, 3-{3-[benzothiazol-2-yl(1-methylpiperidin-4-yloxy)methyl]phenylsulfanyl}propylamine] returned a Ki or IC50 activity class of under 30 nM. `c1csc(C(OC2CCNCC2)c2nc3ccccc3[nH]2)c1` (stereo not drawn) [Example 544] registered a Ki or IC50 activity class of under 1000 nM.

`CCOCCOc1cccc(C(NC2CCN(C)CC2)c2nc3ccccc3[nH]2)c1` (stereo not drawn) [Example 134, {(1H-benzimidazol-2-yl)[3-(2-ethoxyethoxy)phenyl]methyl}(1-methylpiperidin-4-yl)amine] registered a Ki or IC50 activity class of under 300 nM. The compound `CN1CCC(OC(c2cccc(C#CCCCN)c2)c2nc3ccccc3[nH]2)CC1` (stereo not drawn) [Example 294, 5-{3-[(1H-benzimidazol-2-yl)(1-methylpiperidin-4-yloxy)methyl]phenyl}pent-4-ynylamine] yielded a Ki or IC50 activity class of under 30 nM. Compound `CCOCCn1c(C(OC2CCN(C)CC2)c2cccc(I)c2)nc2ccccc21` (stereo not drawn) [Example 497, 1-(2-ethoxyethyl)-2-[(3-iodophenyl)(1-methylpiperidin-4-yloxy)methyl]-1H-benzimidazole] showed a Ki or IC50 activity class of under 1000 nM. For the compound `CN1CCC(OC(c2cccc(OCCCCCNCC(=O)OC(C)(C)C)c2)c2nc3ccccc3s2)CC1` (stereo not drawn) [Example 375, (5-{3-[benzothiazol-2-yl(1-methylpiperidin-4-yloxy)methyl]phenoxy}pentylamino)acetic acid tert-butyl ester], the Ki or IC50 activity class was under 1000 nM. `CN1CCC(OC(c2cccc(OCCCCn3nccn3)c2)c2nc3ccccc3s2)CC1` (stereo not drawn) [Example 315, 2-{(1-methylpiperidin-4-yloxy)[3-(4-[1,2,3]triazol-2-yl-butoxy)phenyl]methyl}benzothiazole] yielded a Ki or IC50 activity class of under 1000 nM. The compound `CN1CCC(OC(c2ccc3c(c2)OCCO3)c2nc3ccccc3s2)CC1` (stereo not drawn) [Example 10, 2-[(2,3-dihydrobenzo[1,4]dioxin-6-yl)(1-methylpiperidin-4-yloxy)methyl]benzothiazole] came in with a Ki or IC50 activity class of under 30 nM. The compound `CN1CCC(NC(c2cccc(SCc3ccccc3)c2)c2nc3ccccc3s2)CC1` (stereo not drawn) [Example 107, [benzothiazol-2-yl(3-benzylsulfanylphenyl)methyl](1-methylpiperidin-4-yl)amine] yielded a Ki or IC50 activity class of under 30 nM. On to `CN1CCC(OC(c2cccc(OCCO)c2)c2nc3ccccc3s2)CC1` (stereo not drawn) [Example 244, 2-{3-[benzothiazol-2-yl(1-methylpiperidin-4-yloxy)methyl]phenoxy}ethanol], for which the Ki or IC50 activity class is under 300 nM. In turn, `CN1CCC(OC(c2nc3ccccc3[nH]2)c2cc(O)ccc2F)CC1` (stereo not drawn) [Example 487] registered a Ki or IC50 activity class of under 30 nM. With `CN1CCC(OC(c2cccc(OCc3cccc(F)c3)c2)c2nc3ccccc3s2)CC1` (stereo not drawn) [Example 171, 2-[[3-(3-fluorobenzyloxy)phenyl](1-methylpiperidin-4-yloxy)methyl]benzothiazole], the Ki or IC50 activity class was under 30 nM. `CN1CCC(OC(c2cccc(N3CCC(CO)C3)c2)c2nc3ccccc3s2)CC1` (stereo not drawn) [Example 404, (1-{3-[benzothiazol-2-yl(1-methylpiperidin-4-yloxy)methyl]phenyl}pyrrolidin-3-yl)methanol]: the Ki or IC50 activity class is under 300 nM. The value for `COC(=O)c1cccc(C(OC2CCN(C)CC2)c2nc3ccccc3s2)c1` (stereo not drawn) [Example 199, 3-[benzothiazol-2-yl(1-methylpiperidin-4-yloxy)methyl]benzoic acid methyl ester] was under 300 nM; that for `CN1CCC(OC(c2cccc(N3CCC(N)C3)c2)c2nc3ccccc3s2)CC1` (stereo not drawn) [Example 423, 1-{3-[benzothiazol-2-yl(1-methylpiperidin-4-yloxy)methyl]phenyl}pyrrolidin-3-ylamine] was under 300 nM. As to `CN1CCC(OC(c2cccc(SCCN)c2)c2nc3ccccc3s2)CC1` (stereo not drawn) [Example 269, 2-{3-[benzothiazol-2-yl(1-methylpiperidin-4-yloxy)methyl]phenylsulfanyl}ethylamine], the Ki or IC50 activity class is under 30 nM. `CN1CCC(OC(c2cccc(SCC(=O)NN)c2)c2nc3ccccc3s2)CC1` (stereo not drawn) [Example 264, {3-[benzothiazol-2-yl(1-methylpiperidin-4-yloxy)methyl]phenylsulfanyl}acetic acid hydrazide] had a Ki or IC50 activity class of under 300 nM. The compound `CN1CCC(OC(c2cccc(CCC(=O)OC(C)(C)C)c2)c2nc3ccccc3s2)CC1` (stereo not drawn) [Example 208, 3-{3-[benzothiazol-2-yl(1-methylpiperidin-4-yloxy)methyl]phenyl}propionic acid tert-butyl ester] showed a Ki or IC50 activity class of under 300 nM.

For the compound `CNC(=O)CSc1cccc(C(OC2CCN(C)CC2)c2nc3ccccc3s2)c1` (stereo not drawn) [Example 259, 2-{3-[benzothiazol-2-yl(1-methylpiperidin-4-yloxy)methyl]phenylsulfanyl}-N-methylacetamide], the Ki or IC50 activity class was under 300 nM.

Regarding `CN1CCC(OC(c2cccc(SCCCCCCO)c2)c2nc3ccccc3s2)CC1` (stereo not drawn) [Example 292, 6-{3-[benzothiazol-2-yl(1-methylpiperidin-4-yloxy)methyl]phenylsulfanyl}hexan-1-ol], the Ki or IC50 activity class was under 300 nM. Compound `CCCCCOc1cccc(C(NC2CCN(C)CC2)c2nc3ccccc3[nH]2)c1` (stereo not drawn) [Example 95, [(1H-benzimidazol-2-yl)(3-pentyloxyphenyl)methyl](1-methylpiperidin-4-yl)amine] registered a Ki or IC50 activity class of under 30 nM. Regarding `CC(=O)OC1CCN(c2cccc(C(OC3CCN(C)CC3)c3nc4ccccc4s3)c2)CC1` (stereo not drawn) [Example 413, acetic acid 1-{3-[benzothiazol-2-yl(1-methylpiperidin-4-yloxy)methyl]phenyl}piperidin-4-yl ester], the Ki or IC50 activity class is under 300 nM. The value for `CN1CCC(OC(c2cccc(C#CCCCN)c2)c2nc3cc(F)ccc3[nH]2)CC1` (stereo not drawn) [Example 438, 5-{3-[(5-fluoro-1H-benzimidazol-2-yl)(1-methylpiperidin-4-yloxy)methyl]phenyl}pent-4-ynylamine] was under 30 nM. For the compound `Cc1ccc(C(NC2CCN(C)CC2)c2nc3ccccc3s2)cc1` (stereo not drawn) [Example 36, (benzothiazol-2-yl-p-tolylmethyl)(1-methylpiperidin-4-yl)amine], the Ki or IC50 activity class is under 300 nM.
